In ChEMBL document CHEMBL2413064, “Synthesis and α-glucosidase inhibitory activity evaluation of N-substituted aminomethyl-β-d-glucopyranosides” (Bioorg Med Chem, 2013):

Columns and labels:
Alpha-glucosidase MAL12 = Alpha-glucosidase MAL12 (Saccharomyces cerevisiae S288c, UniProt P53341); test: Inhibition of Saccharomyces cerevisiae alpha-glucosidase assessed as 4-nitrophenol release from 4-nitrophenyl alpha-D-glucopyranoside preincubated for 15 mins measured after 15 mins
[1] = biological target: T1, Sucrase-isomaltase, intestinal (Rattus norvegicus, UniProt P23739); test: Inhibition of rat intestinal sucrase using sucrose as substrate assessed as D-glucose release from substrate preincubated for 15 mins measured after 60 mins
T1 sequence (P23739 1-1013 limits assumed): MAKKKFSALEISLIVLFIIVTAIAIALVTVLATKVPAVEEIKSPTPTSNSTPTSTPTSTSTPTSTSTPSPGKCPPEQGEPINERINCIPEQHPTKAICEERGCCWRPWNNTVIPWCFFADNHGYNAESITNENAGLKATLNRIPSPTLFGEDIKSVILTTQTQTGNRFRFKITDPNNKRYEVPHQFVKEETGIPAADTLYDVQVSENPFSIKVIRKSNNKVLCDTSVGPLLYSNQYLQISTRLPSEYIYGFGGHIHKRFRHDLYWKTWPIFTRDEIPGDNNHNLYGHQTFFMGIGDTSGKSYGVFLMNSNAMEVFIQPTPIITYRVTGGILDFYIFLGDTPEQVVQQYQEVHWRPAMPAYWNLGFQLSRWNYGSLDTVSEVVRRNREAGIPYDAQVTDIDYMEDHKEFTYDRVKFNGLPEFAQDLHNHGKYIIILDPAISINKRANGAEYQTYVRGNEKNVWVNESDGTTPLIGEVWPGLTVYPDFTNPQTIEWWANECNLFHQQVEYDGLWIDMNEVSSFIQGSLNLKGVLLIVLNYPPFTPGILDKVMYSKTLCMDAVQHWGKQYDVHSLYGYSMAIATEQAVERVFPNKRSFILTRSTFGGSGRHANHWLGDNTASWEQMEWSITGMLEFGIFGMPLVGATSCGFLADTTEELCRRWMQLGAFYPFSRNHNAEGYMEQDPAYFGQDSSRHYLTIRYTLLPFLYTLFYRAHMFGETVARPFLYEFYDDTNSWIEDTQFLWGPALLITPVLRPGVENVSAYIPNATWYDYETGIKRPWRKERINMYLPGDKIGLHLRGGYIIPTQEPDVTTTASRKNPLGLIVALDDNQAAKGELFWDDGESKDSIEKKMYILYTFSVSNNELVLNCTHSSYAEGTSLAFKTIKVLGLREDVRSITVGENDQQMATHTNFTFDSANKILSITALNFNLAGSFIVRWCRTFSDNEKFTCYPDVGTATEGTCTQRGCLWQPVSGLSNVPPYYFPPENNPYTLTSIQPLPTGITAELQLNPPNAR
T1 sequence (P23739 1014-1841 limits assumed): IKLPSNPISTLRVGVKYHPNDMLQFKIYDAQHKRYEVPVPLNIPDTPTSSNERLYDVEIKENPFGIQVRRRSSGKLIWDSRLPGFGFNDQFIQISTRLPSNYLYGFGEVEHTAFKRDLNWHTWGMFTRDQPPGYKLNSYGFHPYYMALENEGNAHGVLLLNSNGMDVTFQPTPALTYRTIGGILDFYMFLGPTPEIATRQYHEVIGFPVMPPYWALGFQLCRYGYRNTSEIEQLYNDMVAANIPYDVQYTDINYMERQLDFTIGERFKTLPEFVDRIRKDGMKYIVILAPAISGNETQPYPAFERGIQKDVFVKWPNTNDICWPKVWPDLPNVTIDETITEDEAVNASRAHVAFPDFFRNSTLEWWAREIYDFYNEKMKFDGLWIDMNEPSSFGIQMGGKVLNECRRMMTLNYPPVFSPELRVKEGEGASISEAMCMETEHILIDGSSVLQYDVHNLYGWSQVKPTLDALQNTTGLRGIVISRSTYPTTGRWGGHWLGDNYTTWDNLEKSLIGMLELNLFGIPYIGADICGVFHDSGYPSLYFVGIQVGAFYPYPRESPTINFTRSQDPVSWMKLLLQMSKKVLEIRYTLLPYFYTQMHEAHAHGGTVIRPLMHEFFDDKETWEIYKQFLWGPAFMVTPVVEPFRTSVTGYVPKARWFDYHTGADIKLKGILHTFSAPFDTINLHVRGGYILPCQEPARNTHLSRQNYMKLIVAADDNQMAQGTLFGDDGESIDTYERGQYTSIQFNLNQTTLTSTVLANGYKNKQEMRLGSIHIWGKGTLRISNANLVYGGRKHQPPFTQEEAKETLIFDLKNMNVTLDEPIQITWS

[2] = biological target: Maltase-glucoamylase, intestinal (Rattus norvegicus)
[3] = biological target: T1, Sucrase-isomaltase, intestinal; test: Competitive inhibition of rat intestinal sucrase using sucrose as substrate by Lineweaver-Burk plot analysis

Sequence of Alpha-glucosidase MAL12 (P53341 whole entry): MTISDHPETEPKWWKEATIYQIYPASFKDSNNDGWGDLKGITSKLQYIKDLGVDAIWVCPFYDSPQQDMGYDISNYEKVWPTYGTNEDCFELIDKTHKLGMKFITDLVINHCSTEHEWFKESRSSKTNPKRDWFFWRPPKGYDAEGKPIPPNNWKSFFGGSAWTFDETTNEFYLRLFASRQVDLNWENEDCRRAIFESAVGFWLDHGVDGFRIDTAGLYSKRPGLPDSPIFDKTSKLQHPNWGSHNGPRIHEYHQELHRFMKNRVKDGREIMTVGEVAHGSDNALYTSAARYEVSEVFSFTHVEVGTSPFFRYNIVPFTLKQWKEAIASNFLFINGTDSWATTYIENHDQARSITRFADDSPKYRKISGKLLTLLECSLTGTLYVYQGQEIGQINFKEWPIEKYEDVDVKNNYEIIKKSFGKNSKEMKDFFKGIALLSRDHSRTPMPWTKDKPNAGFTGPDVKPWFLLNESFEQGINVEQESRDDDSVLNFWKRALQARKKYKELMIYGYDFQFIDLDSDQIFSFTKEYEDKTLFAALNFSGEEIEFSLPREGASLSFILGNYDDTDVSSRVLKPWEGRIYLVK

Structure (SMILES): Cc1ccc(S(=O)(=O)NC[C@@H]2O[C@H](CO)[C@@H](O)[C@H](O)[C@H]2O)cc1
- IC50 (Alpha-glucosidase MAL12): 101 µM
- IC50 [1]: 1420 µM
- IC50 [2]: 476 µM

Structure (SMILES): OC[C@H]1O[C@@H](CNC/C=C/c2ccccc2)[C@H](O)[C@@H](O)[C@@H]1O
- IC50 (Alpha-glucosidase MAL12): 116 µM
- IC50 [1]: 97.4 µM

Structure (SMILES): O=C(NC[C@@H]1O[C@H](CO)[C@@H](O)[C@H](O)[C@H]1O)c1ccccc1
- IC50 (Alpha-glucosidase MAL12): 499 µM
- IC50 [1]: > 2000 µM
- IC50 [2]: 842 µM

Structure (SMILES): O=C(NC[C@@H]1O[C@H](CO)[C@@H](O)[C@H](O)[C@H]1O)c1ccc(Cl)cc1Cl
- IC50 (Alpha-glucosidase MAL12): 466 µM
- IC50 [1]: 991 µM
- IC50 [2]: 585 µM

Structure (SMILES): O=C(NC[C@@H]1O[C@H](CO)[C@@H](O)[C@H](O)[C@H]1O)c1ccc(F)cc1
- IC50 (Alpha-glucosidase MAL12): 1520 µM
- IC50 [1]: 403 µM
- IC50 [2]: 464 µM

Structure (SMILES): O=C(NC[C@@H]1O[C@H](CO)[C@@H](O)[C@H](O)[C@H]1O)c1cccc([N+](=O)[O-])c1
- IC50 (Alpha-glucosidase MAL12): 283 µM
- IC50 [1]: 381 µM

Structure (SMILES): O=C(NC[C@@H]1O[C@H](CO)[C@@H](O)[C@H](O)[C@H]1O)c1ccc([N+](=O)[O-])cc1
- IC50 (Alpha-glucosidase MAL12): 36.2 µM
- IC50 [1]: 1000 µM
- IC50 [2]: 846 µM

Structure (SMILES): O=C(NC[C@@H]1O[C@H](CO)[C@@H](O)[C@H](O)[C@H]1O)c1ccccc1O
- IC50 (Alpha-glucosidase MAL12): 470 µM
- IC50 [1]: > 2000 µM
- IC50 [2]: 1010 µM

Structure (SMILES): COc1ccccc1C(=O)NC[C@@H]1O[C@H](CO)[C@@H](O)[C@H](O)[C@H]1O
- IC50 (Alpha-glucosidase MAL12): 471 µM
- IC50 [1]: 1090 µM
- IC50 [2]: 719 µM

Structure (SMILES): O=C(NC[C@@H]1O[C@H](CO)[C@@H](O)[C@H](O)[C@H]1O)c1ccc(O)cc1
- IC50 (Alpha-glucosidase MAL12): 1910 µM
- IC50 [1]: 1640 µM
- IC50 [2]: 758 µM

Structure (SMILES): COc1ccc(C(=O)NC[C@@H]2O[C@H](CO)[C@@H](O)[C@H](O)[C@H]2O)cc1
- IC50 (Alpha-glucosidase MAL12): 231 µM
- IC50 [1]: 795 µM
- IC50 [2]: 831 µM

Structure (SMILES): COc1ccc(C(=O)NC[C@@H]2O[C@H](CO)[C@@H](O)[C@H](O)[C@H]2O)c(OC)c1
- IC50 (Alpha-glucosidase MAL12): 1860 µM
- IC50 [1]: > 2000 µM

Structure (SMILES): CC(=O)Oc1ccc(C(=O)NC[C@@H]2O[C@H](CO)[C@@H](O)[C@H](O)[C@H]2O)cc1
- IC50 (Alpha-glucosidase MAL12): 96.5 µM
- IC50 [1]: 160 µM
- IC50 [2]: 165 µM

Structure (SMILES): O=C(NC[C@@H]1O[C@H](CO)[C@@H](O)[C@H](O)[C@H]1O)c1ccco1
- IC50 (Alpha-glucosidase MAL12): 534 µM
- IC50 [1]: 770 µM

Structure (SMILES): O=C(NC[C@@H]1O[C@H](CO)[C@@H](O)[C@H](O)[C@H]1O)c1cccs1
- IC50 (Alpha-glucosidase MAL12): 325 µM
- IC50 [1]: > 2000 µM
- IC50 [2]: 445 µM

Structure (SMILES): CC(=O)Oc1cc(C(=O)NC[C@@H]2O[C@H](CO)[C@@H](O)[C@H](O)[C@H]2O)cc(OC(C)=O)c1OC(C)=O
- IC50 (Alpha-glucosidase MAL12): 225 µM
- IC50 [1]: 15.6 µM
- IC50 [2]: 7.7 µM

Structure (SMILES): O=C(/C=C/c1ccccc1)NC[C@@H]1O[C@H](CO)[C@@H](O)[C@H](O)[C@H]1O
- IC50 (Alpha-glucosidase MAL12): 2.3 µM
- IC50 [1]: 314 µM

Structure (SMILES): O=C(/C=C/c1ccc(O)cc1)NC[C@@H]1O[C@H](CO)[C@@H](O)[C@H](O)[C@H]1O
- IC50 (Alpha-glucosidase MAL12): 5.6 µM
- IC50 [1]: 405 µM

Structure (SMILES): CC(=O)Oc1ccc(/C=C/C(=O)NC[C@@H]2O[C@H](CO)[C@@H](O)[C@H](O)[C@H]2O)cc1
- IC50 (Alpha-glucosidase MAL12): 142 µM
- IC50 [1]: 155 µM

Structure (SMILES): COc1cc(/C=C/C(=O)NC[C@@H]2O[C@H](CO)[C@@H](O)[C@H](O)[C@H]2O)ccc1O
- IC50 (Alpha-glucosidase MAL12): 102 µM
- IC50 [1]: 253 µM
- IC50 [2]: 382 µM

Structure (SMILES): CC(=O)Oc1ccc(/C=C/C(=O)NC[C@@H]2O[C@H](CO)[C@@H](O)[C@H](O)[C@H]2O)cc1OC(C)=O
- IC50 (Alpha-glucosidase MAL12): 355 µM
- Ki [3]: 17.1 µM
- IC50 [1]: 10.4 µM

Structure (SMILES): OC[C@H]1O[C@@H](CNCc2ccccc2)[C@H](O)[C@@H](O)[C@@H]1O
- IC50 (Alpha-glucosidase MAL12): 39.2 µM
- IC50 [1]: 270 µM
- IC50 [2]: 1330 µM

Structure (SMILES): OC[C@H]1O[C@@H](CNCc2ccc(Cl)cc2Cl)[C@H](O)[C@@H](O)[C@@H]1O
- IC50 (Alpha-glucosidase MAL12): 318 µM
- IC50 [1]: 154 µM

Structure (SMILES): OC[C@H]1O[C@@H](CNCc2ccc(Cl)c(Cl)c2)[C@H](O)[C@@H](O)[C@@H]1O
- IC50 (Alpha-glucosidase MAL12): 613 µM
- IC50 [1]: 144 µM
- IC50 [2]: 221 µM

Structure (SMILES): OC[C@H]1O[C@@H](CNCc2ccc(F)cc2)[C@H](O)[C@@H](O)[C@@H]1O
- IC50 (Alpha-glucosidase MAL12): 115 µM
- IC50 [1]: 301 µM
- IC50 [2]: 202 µM

Structure (SMILES): O=[N+]([O-])c1cccc(CNC[C@@H]2O[C@H](CO)[C@@H](O)[C@H](O)[C@H]2O)c1
- IC50 (Alpha-glucosidase MAL12): 44.3 µM
- IC50 [1]: 627 µM
- IC50 [2]: 714 µM

Structure (SMILES): OC[C@H]1O[C@@H](CNCc2ccccc2O)[C@H](O)[C@@H](O)[C@@H]1O
- IC50 (Alpha-glucosidase MAL12): 156 µM
- IC50 [1]: 181 µM

Structure (SMILES): OC[C@H]1O[C@@H](CNCc2ccc(O)cc2)[C@H](O)[C@@H](O)[C@@H]1O
- IC50 (Alpha-glucosidase MAL12): 149 µM
- IC50 [1]: 124 µM

Structure (SMILES): COc1ccc(CNC[C@@H]2O[C@H](CO)[C@@H](O)[C@H](O)[C@H]2O)cc1
- IC50 (Alpha-glucosidase MAL12): 457 µM
- IC50 [1]: 179 µM
- IC50 [2]: 306 µM

Structure (SMILES): COc1ccc(CNC[C@@H]2O[C@H](CO)[C@@H](O)[C@H](O)[C@H]2O)cc1O
- IC50 (Alpha-glucosidase MAL12): 465 µM
- IC50 [1]: 186 µM
- IC50 [2]: 407 µM

Structure (SMILES): COc1cc(CNC[C@@H]2O[C@H](CO)[C@@H](O)[C@H](O)[C@H]2O)ccc1O
- IC50 (Alpha-glucosidase MAL12): 377 µM
- IC50 [1]: 186 µM
- IC50 [2]: 223 µM

Structure (SMILES): COc1ccc(CNC[C@@H]2O[C@H](CO)[C@@H](O)[C@H](O)[C@H]2O)c(OC)c1
- IC50 (Alpha-glucosidase MAL12): 622 µM
- IC50 [1]: 105 µM
- IC50 [2]: 160 µM

Structure (SMILES): COc1ccc(C(C)NC[C@@H]2O[C@H](CO)[C@@H](O)[C@H](O)[C@H]2O)cc1O (stereo partly specified)
- IC50 (Alpha-glucosidase MAL12): 184 µM
- IC50 [1]: 107 µM

Structure (SMILES): OC[C@H]1O[C@@H](CNCc2cccs2)[C@H](O)[C@@H](O)[C@@H]1O
- IC50 (Alpha-glucosidase MAL12): 374 µM
- IC50 [1]: 173 µM
- IC50 [2]: 324 µM
